Laboratory results from ChEMBL document CHEMBL1134632, “Long lasting antinociceptive properties of enkephalin degrading enzyme (NEP and APN) inhibitor prodrugs” (J Med Chem, 2001).

Biological target: Neprilysin (Homo sapiens, UniProt P08473)
Experiment: Compound was evaluated for inhibition of enkephalin degrading enzyme, neutral endopeptidase (NEP)

Sequence of Neprilysin (P08473 whole entry): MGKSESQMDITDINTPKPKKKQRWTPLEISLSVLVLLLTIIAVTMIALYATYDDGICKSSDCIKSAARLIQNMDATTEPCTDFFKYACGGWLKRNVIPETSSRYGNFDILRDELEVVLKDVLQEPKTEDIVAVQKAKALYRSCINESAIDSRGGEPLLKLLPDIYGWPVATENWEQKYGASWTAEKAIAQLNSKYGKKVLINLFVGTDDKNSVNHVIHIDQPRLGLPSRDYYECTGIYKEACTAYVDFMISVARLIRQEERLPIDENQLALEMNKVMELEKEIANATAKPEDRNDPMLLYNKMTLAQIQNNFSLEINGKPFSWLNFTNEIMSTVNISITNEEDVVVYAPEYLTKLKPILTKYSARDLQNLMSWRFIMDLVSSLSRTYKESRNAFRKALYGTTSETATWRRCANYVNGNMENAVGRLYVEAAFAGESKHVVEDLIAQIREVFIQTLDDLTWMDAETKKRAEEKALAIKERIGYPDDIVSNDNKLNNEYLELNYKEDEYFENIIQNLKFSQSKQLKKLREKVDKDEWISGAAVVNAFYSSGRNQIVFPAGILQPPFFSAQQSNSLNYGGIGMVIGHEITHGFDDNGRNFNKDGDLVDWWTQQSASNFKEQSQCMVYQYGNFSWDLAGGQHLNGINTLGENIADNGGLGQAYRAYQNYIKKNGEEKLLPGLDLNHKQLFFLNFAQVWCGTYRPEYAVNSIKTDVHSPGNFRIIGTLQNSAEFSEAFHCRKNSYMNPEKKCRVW

CSCC[C@H](N)CSSC[C@@H](Cc1ccccc1)C(=O)NC(Cc1ccccc1)C(=O)OCc1ccccc1 (stereo partly specified)
Ki: 2 nM
